# Experimental data reported in patent publication US9914737B2, “Triazolopyrimidinone or triazolopyridinone derivatives, and use thereof” (ST PHARM CO., LTD., priority 2014, dated 2018).
# Where a name gives a salt, the structure may show the parent alone.
# Target: T1, tankyrase 1 (Homo sapiens, UniProt O95271)
# T1 construct: purchased Trevigen 4700-096-K
# T1 sequence (O95271 1-1327): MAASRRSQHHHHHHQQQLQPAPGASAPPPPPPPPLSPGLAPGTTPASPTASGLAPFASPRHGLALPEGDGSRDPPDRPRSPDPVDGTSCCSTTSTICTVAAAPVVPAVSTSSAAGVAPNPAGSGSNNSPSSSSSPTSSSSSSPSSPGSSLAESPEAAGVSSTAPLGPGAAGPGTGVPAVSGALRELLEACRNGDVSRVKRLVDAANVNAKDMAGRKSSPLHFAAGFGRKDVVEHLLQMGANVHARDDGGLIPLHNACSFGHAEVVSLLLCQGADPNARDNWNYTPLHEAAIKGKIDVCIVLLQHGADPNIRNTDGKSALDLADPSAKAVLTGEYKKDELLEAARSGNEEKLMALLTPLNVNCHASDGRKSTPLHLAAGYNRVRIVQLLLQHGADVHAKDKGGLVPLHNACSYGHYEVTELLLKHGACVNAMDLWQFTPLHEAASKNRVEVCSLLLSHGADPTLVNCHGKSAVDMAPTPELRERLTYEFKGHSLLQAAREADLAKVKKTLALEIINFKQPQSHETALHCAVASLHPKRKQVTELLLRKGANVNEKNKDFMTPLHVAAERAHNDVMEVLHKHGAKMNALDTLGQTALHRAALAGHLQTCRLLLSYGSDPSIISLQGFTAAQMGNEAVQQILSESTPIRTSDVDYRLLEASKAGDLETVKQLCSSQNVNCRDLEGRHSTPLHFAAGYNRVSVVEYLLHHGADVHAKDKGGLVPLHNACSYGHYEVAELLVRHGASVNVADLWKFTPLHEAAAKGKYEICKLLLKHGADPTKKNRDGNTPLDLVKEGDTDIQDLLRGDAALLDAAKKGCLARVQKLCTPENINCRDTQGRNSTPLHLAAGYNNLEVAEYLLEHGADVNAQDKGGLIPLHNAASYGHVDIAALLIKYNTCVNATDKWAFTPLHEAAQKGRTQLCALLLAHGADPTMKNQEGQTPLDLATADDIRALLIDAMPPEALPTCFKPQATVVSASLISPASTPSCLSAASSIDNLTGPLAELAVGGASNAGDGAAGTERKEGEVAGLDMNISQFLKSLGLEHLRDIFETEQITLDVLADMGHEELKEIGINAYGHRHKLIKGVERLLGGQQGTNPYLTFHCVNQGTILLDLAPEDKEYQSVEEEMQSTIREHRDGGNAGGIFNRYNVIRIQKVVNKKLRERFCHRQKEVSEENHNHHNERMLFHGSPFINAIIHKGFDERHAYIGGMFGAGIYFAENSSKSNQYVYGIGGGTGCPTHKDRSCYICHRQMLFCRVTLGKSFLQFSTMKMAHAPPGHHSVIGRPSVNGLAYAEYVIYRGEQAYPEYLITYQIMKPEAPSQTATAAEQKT
# Assay: Analysis of activity of tankyrase 1 (Trevigen kit, ELISA absorbance at 450 nm)
# Assay type: biochemical
# Settings: not given
# Protocol: Activities of novel compounds synthesized according to Examples 1 to 72 against tankyrase 1 were analyzed using a Trevigen kit (Cat. No. 4700-096-K). Poly PAR histone protein-coated 96-well plate, anti-PAR monoclonal antibody and goat anti-mouse IgG-HRP were used for measurement of absorbance by ELISA method. Specifically, 20× I-PAR assay buffer was diluted to 1× by adding water, and 50 μL of the diluted buffer was added to each well of the 96-well plate followed by reacting at rt for 30 min. Then, the supernatant was completely removed from each well and 10 μL of 1× I-PAR assay buffer and 15 μL of assay substrate were added to each well along with 1 μL of a 50× solution of inhibitors to be tested, which were the compounds obtained in the Examples 1 to 72. 10 mUnits/μL of tankyrase 1 enzyme was diluted 50-fold with 1× I-PAR assay buffer and 25 μL of the diluted enzyme was added to each well and reacted while stirring at rt for 30 min. One without any compound of the present invention was used as a positive control and another containing 1× I-PAR assay buffer with the same volume instead of tankyrase 1 enzyme was used as a negative control. Upon completion of the reaction, 200 μL of PBSX, which was prepared by adding 0.1% triton X-100 to PBS, was added and removed and this washing process was repeated twice. Washing was repeated twice more using PBS in the same manner. 5× antibody diluent was diluted with distilled water to 1× concentration, 50 μL of the diluted goat anti-mouse IgG-HRP to 1/2000 was added to each well and reacted while stirring at rt for 30 min. Washes were carried out twice using PBSX and PBS, respectively. After adding 50 μL of TACS-sapphire to each well of the plate, the plate was blocked from light to react for 10 min to 15 min and the color of the reaction solution turned blue. To stop the reaction, 50 μL of 0.2N HCl was added to turn the solution yellow. Finally, the absorbance of the resulting solution was measured at 450 nm.
row,Compound,IC50 [nM]
1,"Cn1nnc2c(=O)[nH]c(N3CCN(c4c(F)cc(OC5COC5)cc4F)CC3)cc21 [compound 62, 6-(4-(2,6-Difluoro-4-(oxetan-3-yloxy)phenyl)piperazin-1-yl)-1-methyl-1H-[1,2,3]triazolo[4,5-c]pyridin-4(5H)-one]",22.1

# Same assay, conditions: tankyrase 1 enzyme, Trevigen kit Cat. No. 4700-096-K, 30 min at rt; read-out: TNKS1 (IC50)
row,Compound,IC50 [nM]
1,"C[C@H](N)C(=O)OCCOc1cc(F)c(N2CCN(c3cc4c(nnn4C)c(=O)[nH]3)CC2)c(F)c1 [compound 58, (S)-2-(3,5-difluoro-4-(4-(1-methyl-4-oxo-4,5-dihydro-1H-[1,2,3]triazolo[4,5-c]pyridin-6-yl)piperazin-1-yl)phenoxy)ethyl2-aminopropanoate hydrochloride]",13.4
2,"Cn1nnc2c(=O)[nH]c(N3CCN(c4c(F)cc(OCC(O)CO)cc4F)CC3)cc21 (stereo not drawn) [compound 59, 6-(4-(4-(2,3-Dihydroxypropoxy)-2,6-difluorophenyl)piperazin-1-yl)-1-methyl-1H-[1,2,3]triazolo[4,5-c]pyridin-4(5H)-one]",16
3,"Cn1nnc2c(=O)[nH]c(N3CCN(c4c(F)cc(CN5CCOCC5)cc4F)CC3)cc21 [compound 60, 6-(4-(2,6-Difluoro-4-(morpholinomethyl)phenyl)piperazin-1-yl)-1-methyl-1H-[1,2,3]triazolo[4,5-c]pyridin-4(5H)-one]",25.8
4,"CN1CCN(Cc2cc(F)c(N3CCN(c4cc5c(nnn5C)c(=O)[nH]4)CC3)c(F)c2)CC1 [compound 61, 6-(4-(2,6-Difluoro-4-((4-methylpiperazin-1-yl)methyl)phenyl)piperazin-1-yl)-1-methyl-1H-[1,2,3]triazolo[4,5-c]pyridin-4(5H)-one]",28.2
5,"CC(O)c1cc(F)c(N2CCN(c3cc4c(nnn4C)c(=O)[nH]3)CC2)c(F)c1 (stereo not drawn) [compound 63, 6-(4-(2,6-Difluoro-4-(1-hydroxyethyl)phenyl)piperazin-1-yl)-1-methyl-1H[1,2,3]triazolo[4,5-c]pyridin-4(5H)-one]",27.3
6,"COC(C)c1cc(F)c(N2CCN(c3cc4c(nnn4C)c(=O)[nH]3)CC2)c(F)c1 (stereo not drawn) [compound 64, 6-(4-(2,6-Difluoro-4-(1-methoxyethyl)phenyl)piperazin-1-yl)-1-methyl-1H[1,2,3]triazolo[4,5-c]pyridin-4(5H)-one]",31.2
7,"COCCN(C)Cc1cc(F)c(N2CCN(c3cc4c(nnn4C)c(=O)[nH]3)CC2)c(F)c1 [compound 65, 6-(4-(2,6-Difluoro-4-(((2-methoxyethyl)(methyl)amino)methyl)phenyl)piperazin-1-yl)-1-methyl-1H-[1,2,3]triazolo[4,5-c]pyridin-4(5H)-one]",40.2
8,"Cn1nnc(C2CCN(c3cc4c(nnn4C)c(=O)[nH]3)CC2)n1 [compound 66, 1-Methyl-6-(4-(2-methyl-2H-tetrazol-5-yl)piperidin-1-yl)-1H-[1,2,3]triazolo[4,5-c]pyridin-4(5H)-one]",331
9,"Cn1nnc2c(=O)[nH]c(N3CCN(c4c(F)cc(OCCN5CCCC5)cc4F)CC3)cc21 [compound 67, 6-(4-(2,6-Difluoro-4-(2-(pyrrolidin-1-yl)ethoxy)phenyl)piperazin-1-yl)-1-methyl-1H-[1,2,3]triazolo[4,5-c]pyridin-4(5H)-one]",18.6
10,"CN1CCN(CCOc2cc(F)c(N3CCN(c4cc5c(nnn5C)c(=O)[nH]4)CC3)c(F)c2)CC1 [compound 68, 6-(4-(2,6-Difluoro-4-(2-(4-methylpiperazin-1-yl)ethoxy)phenyl)piperazin-1-yl)-1-methyl-1H-[1,2,3]triazolo[4,5-c]pyridin-4(5H)-one]",14.2
11,"Cn1nnc2c(=O)[nH]c(N3CCN(c4c(F)cc(OCCCN5CCCCC5)cc4F)CC3)cc21 [compound 69, 6-(4-(2,6-Difluoro-4-(3-(piperidin-1-yl)propoxy)phenyl)piperazin-1-yl)-1-methyl-1H-[1,2,3]triazolo[4,5-c]pyridin-4(5H)-one]",19.1
12,"Cn1nnc2c(=O)[nH]c(N3CCN(c4c(F)cc(OCC(=O)N5CCCC5)cc4F)CC3)cc21 [compound 70, 6-(4-(2,6-Difluoro-4-(2-oxo-2-(pyrrolidin-1-yl)ethoxy)phenyl)piperazin-1-yl)-1-methyl-1H-[1,2,3]triazolo[4,5-c]pyridin-4(5H)-one]",15.6
13,"Cn1nnc2c(=O)[nH]c(N3CCN(c4c(F)cc(OCCN)cc4F)CC3)cc21 [compound 71, 6-(4-(4-(2-Aminoethoxy)-2,6-difluorophenyl)piperazin-1-yl)-1-methyl-1H-[1,2,3]triazolo[4,5-c]pyridin-4(5H)-one]",24.9
14,"Cn1nnc2c(=O)[nH]c(N3CCN(c4c(F)cc(OCCN5CCC(N)CC5)cc4F)CC3)cc21 [compound 72, 6-(4-(4-(2-(4-Aminopiperidin-1-yl)ethoxy)-2,6-difluorophenyl)piperazin-1-yl)-1-methyl-1H-[1,2,3]triazolo[4,5-c]pyridin-4(5H)-one]",7.31
